We go through eleven molecules from US8785443B2, “Methods of using prodrugs of methyl hydrogen fumarate and pharmaceutical compositions thereof” (XenoPort, Inc., priority 2008, dated 2014).

The nature of series [1]: Enzymatic stability of prodrug in CaCo2 S9 homogenate. Format: in vitro ADME. Conditions: CaCo2 S9 0.5 mg/mL, 0.1M Tris pH 7.4, 37° C.; for half-life at 40 µM: human, Caco-2 cell S9 homogenate, read-out: T1/2 Parent Prodrug Cleavage (min) CaCo2. The protocol:
CaCo2 S9 homogenate was prepared using the following procedure. CaCo2 cells were grown in culture for 21 days prior to harvesting. Culture medium was removed from the culture vessel and the monolayer was rinsed twice with 10-15 mL chilled PBS buffer. PBS buffer (7-10 mL) was added to the flask and the cells scraped from the growth surface and transferred to a centrifuge tube. The cells were pelleted by centrifugation at 1500 rpm for 5 min at 4° C. The supernatant was removed and the cell pellet washed with ice cooled PBS and repelleted by centrifugation. The supernatant was removed and the pellet resuspended in cell lysis buffer (0.15M KCl and 10 mM sodium phosphate buffer, pH 7.4). Cells were lysed by sonication at 4° C. using a probe sonicator. The lysed cells were then transferred to vials and centrifuged at 1600 rpm for 10 min at 4° C. to remove intact cells, nuclei, and large cellular debris. The supernatant was removed and transferred to a tube for centrifugation at 8600 rpm for 20 min at 4° C. After centrifugation, the resulting supernatant representing the CaCo2 cell homogenate S9 fraction was carefully removed and aliquoted into vials for storage at −80° C. until the time of use. At the time of use, CaCo2 S9 lysate was diluted to 0.5 mg/mL in 0.1M Tris buffer, pH 7.4.
(§1) The enzymatic stability assays for prodrug in CaCo2 S9, rat liver S9, rat plasma, pig pancreatin, and rat colonic was were performed using the following procedure. Ninety (90) μL of lysate is aliquoted to designated tubes on a cluster plates. The lysate was preincubated for 10 min at 37° C. With the exception of the t(0) time point, 10 μL of a 400 μM solution of test compound in 0.1M Tris buffer, pH 7.4 was added to multiple wells representing different incubation times. The samples were incubated at 37° C. At each time point, the reaction was quenched by adding 300 μL of 100% ethanol. The samples were thoroughly mixed, the tubes transferred to a V-bottom plate, and stored at −20° C. For the t(0) time point, the lysate was quenched with 300 μL of ice cold 100% ethanol, thoroughly mixed, 10 μL of 400 μM test compound was added and mixed, and the sample tube transferred to a V-bottom plate and stored at −20° C. For analysis, 180 μL from each sample was transferred to a 96 well V-bottom plate and sealed. After all time points were collected, the plate was centrifuged for 10 min at 5600 rpm at 4° C. One-hundred fifty (150) μL from each well was then transferred to a 96 well round bottom plate. Samples were analyzed using LC/MS/MS to determine the concentrations of prodrug and parent drug.
(§2) LC-MS/MS analysis for MHF was performed using an API 4000 equipped with an Agilent 1100 HPLC and a Leap Technologies autosampler. A HPLC Phenomenex Onyx Monolithic C18 (CHO-7644) column at a temperature of 35° C., flow rate of 2.0 mL/min, injection volume of 30 μL, and a 3 min run time was used. Mobile phase AI was 0.1% formic acid in water and Mobile phase AII was 0.1% formic acid in acetonitrile. The gradient was 98% AI/2% AII at time 0; 98% AI/2% AII at time 0.1 mM; 5% AI/95% AII at time 1.4 mM; 5% AI/95% AII at time 2.2 min; 98% AI/2% AII at time 2.3 mM; and 98% AI/2% AII at time 3.0 min MHF content was determined using negative ion mode (Q1 128.94; Q2 71).

Series [2] in a line: Enzymatic stability of prodrug in rat liver S9. The class given is in vitro ADME. Conditions: rat liver S9 0.5 mg/mL, pH 7.4, 1 mM NADPH, 37° C.; for half-life at 40 µM: read-out: T1/2 Parent Prodrug Cleavage (min) rLiver. The protocol: Rat liver S9 (XenoTech, Lenexa, Kans.; R1000.59, 20 mg/mL) was diluted to 0.5 mg mL in 0.1 M potassium phosphate buffer at pH 7.4 and 1 mM NADPH cofactor.
as §1, §2

The nature of series [3]: Enzymatic stability of prodrug in rat plasma. The class given is in vitro ADME. Conditions: 37° C.; for half-life at 40 µM: read-out: T1/2 Parent Prodrug Cleavage (min) rPlasma. The protocol:
Rat plasma (Pel-Freez® Biologicals, Rogers, Ark.; 36150) was used as obtained from the supplier.
as §1, §2

Series [4] in a line: Enzymatic stability of prodrug in porcine pancreatin. Conditions: porcine pancreatin 10 mg/mL, 0.1M Tris pH 7.4, 37° C.; for half-life at 40 µM: pig, read-out: T1/2 Parent Prodrug Cleavage (min) pPancreatin. Format: in vitro ADME. The protocol:
Porcine pancreatin (Sigma Aldrich, St. Louis, Mo.; P1625-100G) was diled to 10 mg/mL in 0.1M Tris buffer, pH 7.4.
as §1, §2

Series [5] in a line: Enzymatic stability of prodrug in rat colonic wash. The class given is in vitro ADME. Particulars: rat colonic wash undiluted, 37° C.; for half-life at 40 µM: pH 7.4, read-out: T1/2 Parent Prodrug Cleavage (min) rColonic Wash. The protocol:
To prepare the rat colonic wash, the colon between the ceacum and rectum was resected from a euthanized rat. Five to 10 mL of PBS pH 7.4 buffer (depending on the weight of the rat) was flushed into the lumen of the large intestine and collected into a 250 mL glass beaker at 0° C. (ice bath). The colonic wash was transferred into 10 mL conical tubes using a 10 mL syringe fitted with a filter. Samples of 0.5 mL colonic wash are stored at −80° C. until the time of use. Colonic was used without dilution.
as §1, §2

A further series is described as follows: pH 8.0 buffer stability. Format: physicochemical. Conditions: 150 mM NaH2PO4 buffer pH 8.0, 60 min, 37° C. The protocol:
For the pH 8.0 stability studies, 190 μL of 150 mM NaH2PO4 buffer pH 8.0 was added to each sample tube. Ten (10) μL of 20 mM test compound was added to each tube and mixed. The samples were incubated for 60 min at 37° C. Following incubation, the samples were transferred to room temperature and 800 μL of 50% ACN in water was added to each tube. Samples were analyzed using LC/MS/MS to determine the concentrations of prodrug and parent drug.
as §2

Regarding `CCN(CC)C(=O)COC(=O)/C=C/C(=O)OC` [Compound 1, (N,N-Diethylcarbamoyl)methyl methyl (2E)but-2-ene-1,4-dioate], the half-life at 40 µM was 8 min in series [1]; 2 min in series [2]; 1 min in series [3]; 8 min in series [4]; greater than 60 min in series [5]. Also, the “pH 8.0: Percent DMF or prodrug remaining after 60 minutes” value in “pH 8.0 buffer stability” came out at 63%.
Consider `COC(=O)/C=C/C(=O)OCC(=O)NCc1ccccc1` [Compound 2, Methyl [N-benzylcarbamoyl]methyl (2E)but-2-ene-1,4-dioate], for which the half-life at 40 µM in series [1] amounted to 4 min; in series [2], 9 min; in series [3], 9 min; in series [4], 1 min; in series [5], 25 min. Besides, the “pH 8.0: Percent DMF or prodrug remaining after 60 minutes” value in the series “pH 8.0 buffer stability” was 17%.
The molecule `COC(=O)/C=C/C(=O)OCC(=O)N1CCOCC1` [Compound 3, Methyl 2-morpholin-4-yl-2-oxoethyl (2E)but-2-ene-1,4-dioate] yielded a melting point of 124 to 126 °C. The half-life at 40 µM in series [1] was determined as 56 min. In series [2], the half-life at 40 µM was found to be 22 min. Moreover, the half-life at 40 µM in series [3] was 1 min. In addition, in series [4], the half-life at 40 µM is 8 min. The half-life at 40 µM in series [5] was greater than 60 min. Besides, the “pH 8.0: Percent DMF or prodrug remaining after 60 minutes” value in the series “pH 8.0 buffer stability” stood at 53%.
Regarding `CCCCNC(=O)COC(=O)/C=C/C(=O)OC` [Compound 4, (N-Butylcarbamoyl)methyl methyl (2E)but-2-ene-1,4-dioate], the half-life at 40 µM in series [1] worked out at 5 min; in series [2], 2 min; in series [3], 1 min; in series [4], 2 min; in series [5], 33 min. Also, in the series “pH 8.0 buffer stability”, the “pH 8.0: Percent DMF or prodrug remaining after 60 minutes” value is given as 40%.
On to `COCCNC(=O)COC(=O)/C=C/C(=O)OC` [Compound 5, [N-(2-Methoxyethyl)carbamoyl]methyl methyl (2E)but-2-ene-1,4-dioate], for which the half-life at 40 µM in series [1] is 30 min; in series [2] it was 10 min; in series [3], 2 min; in series [4], 3 min; in series [5] it was greater than 60 min. Besides, the “pH 8.0: Percent DMF or prodrug remaining after 60 minutes” value in the series “pH 8.0 buffer stability” turned out to be 53%.
Regarding `COC(=O)/C=C/C(=O)OCC(=O)N(C)C` [Compound 9], the half-life at 40 µM is 8 min in series [1]; 6 min in series [2]; 1 min in series [3]; 4 min in series [4]; greater than 60 min in series [5]. The “pH 8.0: Percent DMF or prodrug remaining after 60 minutes” value in the series “pH 8.0 buffer stability” amounted to 47%.
Turning to `COC(=O)/C=C/C(=O)OCC(=O)N(C)OC` [Compound 10, (N-Methoxy-N-methylcarbamoyl)methyl methyl (2E) but-2-ene-1,4-dioate], the half-life at 40 µM in series [1] is 3 min; in series [2], 1 min; in series [3] it was 1 min; in series [4], 4 min; in series [5] it was greater than 60 min. Also, in “pH 8.0 buffer stability”, the “pH 8.0: Percent DMF or prodrug remaining after 60 minutes” value was 42%.
`COCCN(CCOC)C(=O)COC(=O)/C=C/C(=O)OC` [Compound 11]: the melting point fell in the range of 79 to 82 °C.
The molecule `COC(=O)/C=C/C(=O)OC(C)C(=O)N1CCOCC1` (stereo not shown) [Compound 28, Methyl 1-methyl-2-morpholin-4-yl-2-oxoethyl (2E)but-2-ene-1,4-dioate] returned a melting point of 70 to 73 °C.
Same read-out and setting: for `COC(=O)/C=C/C(=O)O[C@@H](C)C(=O)N1CCOCC1` [Compound 31, (1S)-1-Methyl-2-morpholin-4-yl-2-oxoethyl methyl (2E)but-2-ene-1,4-dioate] the value was 79 to 82 °C.
In the case of “Methyl(N-(1,3,4-thiadiazol-2-yl)carbamoyl)methyl(2E)but-2ene-1,4-dioate [Compound 8]”, in series [1], the “T1/2 Parent Prodrug Cleavage (min) CaCo2” value was 52 min. Further, in series [2], the “T1/2 Parent Prodrug Cleavage (min) rLiver” value is given as 23 min. In addition, in series [3], the “T1/2 Parent Prodrug Cleavage (min) rPlasma” value came to 6 min. In addition, the “T1/2 Parent Prodrug Cleavage (min) pPancreatin” value in series [4] was determined as 15 min. The “T1/2 Parent Prodrug Cleavage (min) rColonic Wash” value in series [5] came to 27 min. Also, the “pH 8.0: Percent DMF or prodrug remaining after 60 minutes” value in “pH 8.0 buffer stability” turned out to be 141%.
